From PubChem BioAssay (NCI)
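Compound exposure: 48 hours, 5 concentrations, 96-well plates. TGI: total growth inhibition.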

Experiments:
Test in all cases: NCI tumour cell line growth inhibition, 48 h
A549 NSCLC = system: A549 NSCLC
CAKI-1 renal = system: CAKI-1 renal
HS 578T breast = system: HS 578T breast
MDA-MB-435 = system: MDA-MB-435
MOLT-4 leukemia = system: MOLT-4 leukemia
NCI-H23 lung = system: NCI-H23 lung
OVCAR-3 ovarian = system: OVCAR-3 ovarian
OVCAR-5 ovarian = system: OVCAR-5 ovarian
PC-3 prostate = system: PC-3 prostate
SF-295 CNS = system: SF-295 CNS
SK-MEL-28 melanoma = system: SK-MEL-28 melanoma
U251 CNS = system: U251 CNS
DLD-1 colon = system: DLD-1 colon

Structure (SMILES) | TGI (A549 NSCLC) [µM] | TGI (CAKI-1 renal) [µM] | TGI (HS 578T breast) [µM] | TGI (MDA-MB-435) [µM] | TGI (MOLT-4 leukemia) [µM] | TGI (NCI-H23 lung) [µM] | TGI (OVCAR-3 ovarian) [µM] | TGI (OVCAR-5 ovarian) [µM] | TGI (PC-3 prostate) [µM] | TGI (SF-295 CNS) [µM] | TGI (SK-MEL-28 melanoma) [µM] | TGI (U251 CNS) [µM] | TGI (DLD-1 colon) [µM]
CCOC(=O)CCC(NC(=O)c1ccc(Nc2nc3cc(C(F)(F)F)ccc3nc2-c2ccccc2)cc1)C(=O)OCC (configuration not stated) | > 100 | > 100 | > 100 | > 100 | > 100 | > 100 | > 100 | > 100 | > 100 | > 100 | > 100 | > 100 | –
C=C1C(=O)C23CC1C[C@H](OC(C)=O)C2C1(C)C(OC(C)=O)C[C@H](O)C(C)(C)[C@H]1C(O)[C@@H]3OC(C)=O (some centres not stated) | 48.8 | 30.7 | 41.9 | 20.6 | 8.64 | 26.8 | 19.1 | 28.8 | 26.5 | > 57.6 | 24.4 | 28.9 | –
CN(C)CCNc1ccc2c(=O)n(CCN(C)C)c(=O)n3c4ccc(N)cc4c(=O)c1c23 | 0.599 | 4.76 | 1.3 | 0.273 | 0.161 | 0.215 | 1.22 | 0.844 | 0.477 | 1.07 | 0.819 | 0.988 | –
Cc1sc2nc3n(c(=O)c2c1C)N=C(c1ccc(Cl)cc1)CS3 | > 100 | > 100 | > 100 | > 100 | > 100 | > 100 | > 100 | > 100 | > 100 | > 100 | > 100 | > 100 | –
O=C1N=C(c2ccccc2)O/C1=C\c1ccccc1 | > 100 | > 100 | > 100 | > 100 | > 100 | > 100 | > 100 | > 100 | > 100 | > 100 | > 100 | > 100 | –
O=C(CCCn1ccnc1[N+](=O)[O-])NCCn1ccnc1 | > 100 | > 100 | > 100 | > 100 | > 100 | > 100 | > 100 | > 100 | > 100 | > 100 | > 100 | > 100 | –
CC(C)(C)N1NC1C1NN1C(C)(C)C (configuration not stated) | > 100 | > 100 | > 100 | > 100 | > 100 | > 100 | > 100 | > 100 | > 100 | > 100 | > 100 | > 100 | –
COC(=O)N/N=C/c1oc(-c2cccc([N+](=O)[O-])c2)c(-c2cccc([N+](=O)[O-])c2)c1[N+](=O)[O-] | > 100 | – | – | – | 89.9 | > 100 | > 100 | > 100 | – | > 100 | > 100 | > 100 | > 100
COc1cc(-c2coc3c(OC)c(OC4OC(CO)C(O)C(O)C4O)c(OC)cc3c2=O)cc(OC)c1C (configuration not stated) | > 55.6 | 31 | 15.4 | 17.9 | > 36 | 14.1 | > 100 | 32.7 | > 54.3 | 28.5 | > 28.4 | > 34.6 | –
O=[N+]([O-])C(=C(N1CCOCC1)N1CCOCC1)/C(Cl)=C(\Cl)[N+](=O)[O-] | 50.8 | 3.04 | 16.6 | 23.1 | > 100 | 9.29 | 13.5 | 31.4 | 32.6 | 36.4 | 28.9 | 37.8 | –
C=C(C)[C@@H]1CC[C@]2(C(=O)O)CC[C@]3(C)[C@H](CC[C@@H]4[C@@]5(C)CC[C@H](C(=O)/C=C/c6ccc(O)cc6)C(C)(C)[C@@H]5CC[C@]43C)[C@@H]12 | > 100 | 9.43 | 36.2 | 24.4 | 51.6 | 20.8 | 10.3 | 23.7 | 19 | 21.7 | 26.5 | > 100 | –
COC1OC(CO)C(O)C(OC(=O)c2cc(O)c(O)c(O)c2)C1OC(=O)c1cc(O)c(O)c(O)c1 (configuration not stated) | > 100 | > 100 | > 100 | > 100 | > 100 | > 100 | > 100 | > 100 | > 100 | 42.1 | > 100 | > 100 | –
CC(=O)O[C@H]1C(=O)[C@@]2(C)[C@H]([C@H](OC(=O)C3CCCCC3)[C@]3(O)C[C@H](OC(=O)[C@H](O)[C@@H](NC(=O)C4CCCCC4)C4CCCCC4)C(C)=C1C3(C)C)[C@]1(OC(C)=O)CO[C@@H]1C[C@@H]2O | 20.9 | 8.02 | 0.0531 | 0.0105 | 4.18 | 0.438 | 0.0355 | 0.121 | 1.96 | 0.176 | 8.55 | 1.66 | –
O=C1/C(=C\c2cccc(Oc3ccccc3)c2)SC(c2ccccc2)N1c1ccc(Cl)cc1 (configuration not stated) | > 100 | > 100 | > 100 | > 64.3 | > 63.6 | 98.7 | > 100 | > 100 | > 100 | > 100 | > 100 | > 100 | –
O=S1(=O)CCN(Cc2ccccc2)/C1=N\S(=O)(=O)c1ccc(Cl)cc1 | > 100 | 33.2 | 73.8 | 36.2 | 49.9 | 35.3 | 36.1 | 33.4 | 36.7 | > 100 | 32.8 | 33.5 | –
CN(C)CCO/N=C1/C=C2CC[C@H]3[C@@H]4CC[C@H](O)[C@@]4(C)CC[C@@H]3[C@@]2(C)CC1 | > 65.2 | > 66.8 | 54.1 | 12.4 | > 36.3 | 33.6 | 61 | > 100 | > 100 | 32.4 | 35.1 | 27.5 | –
O=[N+]([O-])c1cccc2nccc(NCC(O)CO)c12 (configuration not stated) | 36.4 | 35.8 | 40.7 | 37.8 | > 80.6 | 43.1 | 33.7 | 42.1 | 38.5 | 53.7 | 34 | 32.6 | –
C/C=C(/C)C(=O)O[C@H]1C(C)=C[C@]23C(=O)[C@@H](C=C(COC(C)=O)[C@@H](O)[C@]12O)[C@H]1[C@@H](C[C@H]3C)[C@@]1(C)OC(=O)/C(C)=C\C | 9.34 | 6.14 | 5.28 | 6.6 | 3.56 | 5.19 | 5.99 | 6.48 | 4.75 | 5.01 | 11.8 | 7.55 | –
O=C1CC2(CCC(O)(c3ccc(Cl)cc3)C(C(=O)c3ccc(Cl)cc3)C2)C(=O)c2ccccc2N1 (configuration not stated) | > 50.8 | > 40.9 | 7.44 | > 100 | 8.56 | 53.8 | > 100 | > 100 | > 100 | 39.5 | 20.6 | > 31.9 | –
c1ccc(CCN(Cc2nc3ccccc3[nH]2)Cc2nc3ccccc3[nH]2)cc1 | 44.8 | 12.5 | 43.4 | 29.8 | 39.3 | 37.9 | 48.5 | 71.6 | 36.7 | 35.4 | 30.4 | 19.8 | –
CCC(=O)COc1ccc(NC(NC(=O)C(C(F)(F)F)C(F)(F)F)(C(F)(F)F)C(F)(F)F)cc1 | > 100 | 94.1 | > 100 | > 100 | 44.8 | > 100 | > 100 | > 100 | > 100 | > 100 | > 100 | > 100 | –
COC(=O)C1(O)c2ccccc2N=C2C(=O)c3ccccc3N21 (configuration not stated) | > 100 | > 100 | > 100 | 26.3 | > 100 | > 100 | > 100 | > 100 | > 100 | > 100 | > 100 | > 100 | –
CCOC(=O)c1ccc(C(=O)/C(C#N)=C2\CCCN2)[nH]1 | > 100 | > 100 | > 100 | > 100 | > 100 | > 100 | > 100 | > 100 | > 100 | > 100 | > 100 | > 100 | –
CC1(C)C(=O)N=C(N)N1C(=O)OCc1ccccc1 | > 100 | > 100 | > 100 | > 100 | > 100 | > 100 | > 100 | > 100 | > 100 | > 100 | > 100 | > 100 | –
C=C[C@H]1CN2CCc3c([nH]c4c([C@H]5CCCN5C)c(O)ccc34)[C@@H]2C[C@@H]1C[C@H]1c2[nH]c3ccccc3c2CCN1C | 3.08 | 3.17 | 4.59 | 2.83 | 5.32 | 3.56 | 3 | 3.26 | 3.11 | 3.25 | 3.3 | 2.92 | –
